No end group written: not given here.
Legend:
Format in all cases: binding, mouse
[1] = test system: mAbs H44/24, H44/58, H44/70, H44/78, 4BE12C10; assay: ELISA test for the peptide-on-phage mAb interaction; settings: peptide-on-phage coated at 5×10^11 particules/ml; positives tested a second time
Protocol: To assess the binding of the mAbs to the numerous peptides-on-phage, all clones have been produced independently using the following protocol.
A preculture of E. coli DH11S infected with the phage was grown overnight. A sample of this preculture was used to inoculate a new 50 ml culture with a starting OD600nm of 0.050. This culture was grown up to an OD600nm of 0.20 to 0.25 with vigorous shaking at 37° C. The culture was then slowed down for 15 minutes in order to allow the regeneration of pili. M13K07 helper phage was added at an MOI of 20, and superinfection was allowed for 15 more minutes at 37° C. with slow agitation. IPTG (1 mM final concentration) was then added and the culture was grown for 5 hours with vigorous agitation.
A colony of K91kan containing the clone of interest (on a LB Tet plate) was added to 50 ml of LB supplemented with 20 μg/ml tetracycline and grown overnight at 37° C. with strong agitation.
Culture was centrifuged for 15 minutes at 4000RPM; 0.15 volume of PEG-NaCl solution was added to the supernatant for precipitating the phage and kept overnight at 4° C. Phage were collected by centrifugation, 45 minutes at 4000RPM. After being resuspended in TBS, phage were heated 15 minutes at 65° C. to kill remaining bacteria and to denature soluble proteins present in the sample. The solution was then centrifuged and the pellet was discarded. Phage in the supernatant were then precipitated again as indicated above. Phage were finally resuspended in 200 μl of TBS. Concentration of phage particules was determined by measuring the ΔOD at 269 nm-320 nm.
(§1) Phages were coated at 5×10^11 particules/ml on MaxiSorp multiwell plates. Coating was performed overnight at 4° C. with 100 μl/well. Plates were saturated with 5% (v/v) skimmed milk in TBS for 2 hours at 37° C. and washed 5 times with TBS-Tween20 0.05% (v/v). The mAbs were then incubated in the coated wells for 1 hour at 37° C., washed 5 times, and GAM-HRP conjugate (1500-fold dilution, Dako, Denmark) was added for 1 hour at 37° C. to detect the binding of the mAb to the phages. After 5 washings, the peroxidase activity was monitored by addition of the K-Blue® substrate (Neogen, Lexington, USA) at room temperature for 20 minutes. Reaction was stopped by addition of 25 μl of 2N H2SO4. Reading was performed at 450-630 nm. Each phage was coated in triplicate for testing with each mAb.

[2] = test system: mAb H44/58; assay: SPOT peptide immunoblot, mAb H44/58
Description: Another experiment for determining the best peptide candidates for immunisation trials is whether chemically synthesized peptides are recognized by at least one anti-MenB LOS mAb (and preferably not by irrelevant mAbs). This can be assessed on SPOT synthesized peptides (peptides synthesized directly on a cellulose membrane). This membrane can be tested with different mAbs by repetitive immunoblottings and chemiluminescent detection. Peptides may be synthesised with 3 residues originating from the pVIII protein sequence on each end of the peptide. Indeed, the primary structure of the peptides expressed in fusion with pVIII on the surface of the bacteriophage is as follows (x for any residue in the library):
For example linear peptides comprising peptide No. 61 from Table 2 (GEFPRPHFGAPPDPA) and peptide No. 83 (GEFAERSLWYYPDPA) were synthesised on one membrane, and cyclised peptides comprising peptide No. 50 from Table 2 (GEFCSSYSYVHDSCGDP), peptide 14 (GEFCSHAPPYDRVCGDP) and peptide 25 (GEFCRAPPYDTIMCGDP) were synthesised on another.
The protocol used to probe these membranes with mAbs was the one provided by Genosys, with some modifications, especially for the regeneration of membranes with cyclised peptides. […]

[3] = test system: mAb H44/58; assay: Phage-ELISA with mAb H44/58; settings: peptide-on-phage
Protocol: as §1

## AERSLWYYP [Peptide 83]
[1]
  Phage ELISA: positive with at least one mAb: positive
[2]; Membrane 1 (linear peptide)
  SPOT recognition by mAb 58 (H44/58): recognized

## AITGVRARW (LOS peptide mimotope sequence) [Peptide 143]
[1]
  Phage ELISA: positive with at least one mAb: positive

## ARWYPISQT (LOS peptide mimotope sequence) [Peptide 124]
[1]
  Phage ELISA: positive with at least one mAb: positive

## CANSRPGGYLC (LOS peptide mimotope sequence) [Peptide 30]
[1]
  Phage ELISA: positive with at least one mAb: positive

## CAPPGIAVRTC (not fully specified (bridges); cysteine pairing not given here) [Peptide 115]
[1]
  Phage ELISA: positive with at least one mAb: positive

## CAPYSIFIGEC (not fully specified (bridges); cysteine pairing not given here) [Peptide 17]
[1]
  Phage ELISA: positive with at least one mAb: positive

## CFARPFQGTWC (LOS peptide mimotope sequence) [Peptide 22]
[1]
  Phage ELISA: positive with at least one mAb: positive

## CFGLIAFHPDC (LOS peptide mimotope sequence) [Peptide 27]
[1]
  Phage ELISA: positive with at least one mAb: positive

## CHSVQPATRAC (LOS peptide mimotope sequence) [Peptide 131]
[1]
  Phage ELISA: positive with at least one mAb: positive

## CIDAGSHGWLC (LOS peptide mimotope sequence) [Peptide 133]
[1]
  Phage ELISA: positive with at least one mAb: positive

## CISEYAKGTTC (LOS peptide mimotope sequence) [Peptide 13]
[1]
  Phage ELISA: positive with at least one mAb: positive

## CLAASADTAAC (LOS peptide mimotope sequence) [Peptide 139]
[1]
  Phage ELISA: positive with at least one mAb: positive

## CLWRPIDPFLC (LOS peptide mimotope sequence) [Peptide 82]
[1]
  Phage ELISA: positive with at least one mAb: positive

## CPKAPFSPFKC (LOS peptide mimotope sequence) [Peptide 132]
[1]
  Phage ELISA: positive with at least one mAb: positive

## CPPPWSTHDC (LOS peptide mimotope sequence) [Peptide 141]
[1]
  Phage ELISA: positive with at least one mAb: positive

## CPYTSWAREGC (LOS peptide mimotope sequence) [Peptide 140]
[1]
  Phage ELISA: positive with at least one mAb: positive

## CQPIGPPYDRC (LOS peptide mimotope sequence) [Peptide 28]
[1]
  Phage ELISA: positive with at least one mAb: positive

## CRAPPYDTIMC [Peptide 25]
[3]
  Phage-ELISA result with mAb H44/58: positive
[2]; Membrane 2 (cyclic peptides), synthesised with pVIII flanking residues
  SPOT recognition by mAb 58 (H44/58): positive

## CRFTYDPPFMC (LOS peptide mimotope sequence) [Peptide 51]
[1]
  Phage ELISA: positive with at least one mAb: positive

## CRGLQGHIAYC (LOS peptide mimotope sequence) [Peptide 87]
[1]
  Phage ELISA: positive with at least one mAb: positive

## CRPAFDPPYHC (LOS peptide mimotope sequence) [Peptide 54]
[1]
  Phage ELISA: positive with at least one mAb: positive

## CSEPWSTSNC (LOS peptide mimotope sequence) [Peptide 142]
[1]
  Phage ELISA: positive with at least one mAb: positive

## CSHAPPYDRVC [Peptide 14]
[1]
  Phage ELISA: positive with at least one mAb: positive
[3]
  Phage-ELISA result with mAb H44/58: positive

## CSSLYYHGTAC (LOS peptide mimotope sequence) [Peptide 39]
[1]
  Phage ELISA: positive with at least one mAb: positive

## CSSYSYVHDSC [Peptide 50]
[1]
  Phage ELISA: positive with at least one mAb: positive

## CTANVYFGTYC [Peptide 29]
[1]
  Phage ELISA: positive with at least one mAb: positive

## CTHYSFYGDIC (LOS peptide mimotope sequence) [Peptide 66]
[1]
  Phage ELISA: positive with at least one mAb: positive

## CTPLPDGGILC (LOS peptide mimotope sequence) [Peptide 103]
[1]
  Phage ELISA: positive with at least one mAb: positive

## CYPQLSHANPC (LOS peptide mimotope sequence) [Peptide 105]
[1]
  Phage ELISA: positive with at least one mAb: positive

## DSAPAVKSS (LOS peptide mimotope sequence) [Peptide 85]
[1]
  Phage ELISA: positive with at least one mAb: positive

## EKKHFNYGT (LOS peptide mimotope sequence) [Peptide 144]
[1]
  Phage ELISA: positive with at least one mAb: positive

## EKKRFESNT (LOS peptide mimotope sequence) [Peptide 145]
[1]
  Phage ELISA: positive with at least one mAb: positive

## EQGYCTVNIEQCAKYR (LOS peptide mimotope sequence) [Peptide 146]
[1]
  Phage ELISA: positive with at least one mAb: positive

## GPWHGPSSS (LOS peptide mimotope sequence) [Peptide 93]
[1]
  Phage ELISA: positive with at least one mAb: positive

## HGRTLWYTP (LOS peptide mimotope sequence) [Peptide 55]
[1]
  Phage ELISA: positive with at least one mAb: positive

## LKWGDGSSA (LOS peptide mimotope sequence) [Peptide 104]
[1]
  Phage ELISA: positive with at least one mAb: positive

## NSPTSCKWLCNEKF (LOS peptide mimotope sequence) [Peptide 148]
[1]
  Phage ELISA: positive with at least one mAb: positive

## PGWYDAHPT (LOS peptide mimotope sequence) [Peptide 86]
[1]
  Phage ELISA: positive with at least one mAb: positive

## PLWYDPAPP (LOS peptide mimotope sequence) [Peptide 47]
[1]
  Phage ELISA: positive with at least one mAb: positive

## PRPHFGAPP [Peptide 61]
[1]
  Phage ELISA: positive with at least one mAb: positive

## RGSEGSFAR (LOS peptide mimotope sequence) [Peptide 45]
[1]
  Phage ELISA: positive with at least one mAb: positive

## SNWYENTPT (LOS peptide mimotope sequence) [Peptide 58]
[1]
  Phage ELISA: positive with at least one mAb: positive

## SPADCDYTTLCAKPT (LOS peptide mimotope sequence) [Peptide 147]
[1]
  Phage ELISA: positive with at least one mAb: positive

## SQWRSAAPT (LOS peptide mimotope sequence) [Peptide 53]
[1]
  Phage ELISA: positive with at least one mAb: positive

## WYIAPRKTL (LOS peptide mimotope sequence) [Peptide 63]
[1]
  Phage ELISA: positive with at least one mAb: positive

## WYSAPENAL (LOS peptide mimotope sequence) [Peptide 88]
[1]
  Phage ELISA: positive with at least one mAb: positive

## WYTTPTRPV (LOS peptide mimotope sequence) [Peptide 75]
[1]
  Phage ELISA: positive with at least one mAb: positive

Source: patent US20040047880A1, “Component for vaccine” (priority 2000, published 2004)
